# Data from patent US20120028358A1, “METHOD FOR INCREASING RETROVIRAL INFECTIVITY” (priority 2010, published 2012).
# Entries after “also recorded” stand apart in the source; their conditions may differ.
# How the values were obtained:
# T47D cells = experiment: Non-integrated and integrated viral DNA in infected T47D cells (qPCR); assay type: cell-based, human; conditions: 1 μmol/L, any time after infection
# Method: Viral DNA measurement: The total DNA from infected cells was extracted by DNeasy Blood & tissue kit (Qiagen). The level of viral DNA in total DNA extract isolated from infected cells was determined by quantitative PCR using iScript One-Step RT-PCR kit (with SYBR Green, Bio-Rad, 170-8893) with primers for the GFP or the internal ribosome entry site regions of the viral DNA following the manufacturer's instructions. No reverse transcriptase was used in order to exclude contamination from a viral RNA signal. In integration studies, the total DNA isolated from infected cells was first resolved in a 0.8% agarose gel. […] DNA from each fraction was extracted and analyzed for the presence of viral sequences by qPCR as previously described.
# Similar to previous experiments, the total cellular DNA was isolated and resolved on a 0.8% agarose gel. […] Similar to our results in endothelial cells (FIG. 13) the level of free (i.e. non-integrated) viral DNA was elevated 6 hours after infection and then gradually declined towards baseline (FIG. 15A).
# rat PMVEC = experiment: Intensity of GFP expression in infected target cells (pro-viral LTR promoter); assay type: cell-based; conditions: mifepristone in conditioned medium
# Method: Flow cytometry analysis: Cells were harvested by 0.05% trypsin/0.53 mM EDTA digestion, washed, re-suspended in cultured medium and analyzed directly by FACScan in the University of South Alabama Flow Cytometry Core.
# To assess whether dexamethasone had the same stimulatory effect on the LTR promoter of the pro-virus integrated into the target cells that it did on packaging cells (FIG. 1A), the expression level of GFP in infected cells was also measured. […] Dexamethasone had no effect on cell growth over 7 days in either retrovirus producing or target cells (data not shown).
# HIV = conditions: depending on cell type; cited from earlier work
# Phoenix cells = experiment: Viral titer of conditioned medium by quantitative RT-PCR (GFP region of viral RNA); assay type: cell-based
# Method: Vectors and delivery systems: pBMN-GFP, a retroviral vector that expresses GFP driven by the MMLV's promoter in Phoenix and other cells was purchased from Orbigen, Inc. (San Diego, Calif.). Packaging cells were transfected with pBMN-GFP using FuGENE 6 reagent following manufacture instructions. Stably transfected Phoenix cells were selected by GFP expression using flow cytometry and then used for experiments. For virus propagation, packaging cells were cultured in growth medium for at least 12 hours. Virus was collected with cultured medium, filtered, supplemented with hexadimethrine bromide (polybrene) to a final concentration of 4 μg/ml and applied directly to target cells. The level of viral RNA in collected medium was determined by quantitative PCR using iScript One-Step RT-PCR kit (with SYBR Green, Bio-Rad, 170-8893) using primers for the GFP region of the viral RNA following manufacture instructions.
# We first tested the ability of dexamethasone to increase retroviral protein production in Phoenix cells with integrated pro-viruses using GFP as a reporter. […] We then analyzed the Phoenix cells for GFP expression by flow cytometry. […] To determine if this increase in GFP expression correlated with an increase in viral titer in the supernatant, we performed quantitative RT-PCR on the conditioned medium using primers for the GFP region of the viral RNA.
compound,measurement,setting,value
"CC#C[C@]1(O)CC[C@H]2[C@@H]3CCC4=CC(=O)CCC4=C3[C@@H](c3ccc(N(C)C)cc3)C[C@@]21C [mifepristone, 11-beta-(4-dimethylaminophenyl)-17-beta-hydroxy-17-alpha-(1-propynyl)-estra-4,9-dien-3-one]",Amount of free viral DNA versus vehicle,T47D cells,no difference
same,Amount of incorporated viral DNA versus vehicle,T47D cells,no difference
same,GFP expression in infected target cells,rat PMVEC,did not alter
same,HIV replication,HIV,could stimulate
same,Effect on enhancing effect of dexamethasone on virus production,Phoenix cells; dexamethasone and mifepristone added to packaging cells at the same time,partially blocks; also recorded: completely inhibited
same,Viral levels in the medium,"Phoenix cells; mifepristone 0-20 μmol, without dexamethasone",no effect
